Laboratory results reported in PMC12156041, “Design, Synthesis and Antiplasmodial Activities of a Library of Fluorine-Based 3-Benzylmenadiones” (Molecules, 2025).
Like-named read-outs stand apart in the source and are kept apart here.

What was measured:
[1] = test system: P. falciparum NF54 strain; experiment: P. falciparum NF54 [3H]hypoxanthine incorporation assay, 72 h, 0.5% Albumax; assay type: cell-based; conditions: Plasmodium falciparum
[2] = test system: rat myoblast cell line (L6 cells); assay type: cell-based
Source text: Considering the potency of plasmodione and the observed main metabolite 6-hydroxy–plasmodione eliminated in the urine of PD-treated mice, our primary goal was to introduce a fluorine atom at C-6 of the menadione core to block the process of drug metabolism from occurring in the host’s liver. In this aim, we prioritized the preparation of a library of 6-fluoro-3-benzylmenadiones by investigating the replacement of the trifluoromethyl group by diverse EWG and EDG groups in various loci of the aryl ring. For SAR, all compounds were tested for the inhibition of parasite growth in RBCs infected with a P. falciparum chloroquine-sensitive strain, NF54. The parasites were cultured in vitro according to known conditions. […] The cytotoxicity of the active compounds was assessed against a rat myoblast cell line (L6 cells).
Cell proliferation was assessed with resazurin, and the generally cytotoxic agent podophyllotoxin served as the positive control, as previously reported by the STPH authors M. R. and P. M. in their recently published article.

[3] = test system: P. falciparum NF54 strain; conditions: cited from earlier work
[4] = test system: rat myoblast cell line (L6 cells); conditions: cited from earlier work
[5] = NF54, 72 h, P. falciparum NF54, 72 h, read-out: IC50
[6] = NF54, as stated in text, read-out: IC50 against P. falciparum NF54
[7] = NF54, read-out: IC50 against P. falciparum NF54

Compound: CC1=C(Cc2cccc(C(F)(F)F)c2)C(=O)c2cc(F)ccc2C1=O [A-a-1]
- IC50 [1, 5]: 82 nM
- Tox/L6 [2]: 12.5 µM

Compound: CC1=C(Cc2ccccc2C(F)(F)F)C(=O)c2cc(F)ccc2C1=O [A-a-2]
- IC50 [1, 5]: 138 nM
- Tox/L6 [2]: 53.4 µM

Compound: CC1=C(Cc2ccc(OC(F)(F)F)cc2)C(=O)c2cc(F)ccc2C1=O [A-a-3]
- IC50 [1, 5]: 330 nM
- Tox/L6 [2]: 138.8 µM

Compound: CC1=C(Cc2ccc(F)cc2)C(=O)c2cc(F)ccc2C1=O [A-a-4]
- IC50 [1, 5]: 302 nM
- Tox/L6 [2]: 174.5 µM

Compound: CC1=C(Cc2cccc(F)c2)C(=O)c2cc(F)ccc2C1=O [A-a-5]
- IC50 [1, 5]: 246 nM
- Tox/L6 [2]: 6.6 µM

Compound: CC1=C(Cc2ccccc2F)C(=O)c2cc(F)ccc2C1=O [A-a-6]
- IC50 [1, 5]: 119 nM
- Tox/L6 [2]: 7.6 µM

Compound: CC1=C(Cc2ccc(C(F)(F)F)c(F)c2)C(=O)c2cc(F)ccc2C1=O [A-a-7]
- IC50 [1, 5]: 735 nM
- Tox/L6 [2]: 85.5 µM

Compound: CC1=C(Cc2ccc(C(F)(F)F)c(Br)c2)C(=O)c2cc(F)ccc2C1=O [A-a-8]
- IC50 [1, 5]: 167 nM

Compound: CC1=C(Cc2ccc(F)c(C(F)(F)F)c2)C(=O)c2cc(F)ccc2C1=O [A-a-9]
- IC50 [1, 5]: 149 nM

Compound: CC1=C(Cc2ccc(C#N)cc2)C(=O)c2cc(F)ccc2C1=O [A-a-10]
- IC50 [1, 5]: 231 nM
- Tox/L6 [2]: 95 µM

Compound: CC1=C(Cc2ccccc2C#N)C(=O)c2cc(F)ccc2C1=O [A-a-11]
- IC50 [1, 5]: 264 nM
- Tox/L6 [2]: 327.0 µM

Compound: CC1=C(Cc2ccc([N+](=O)[O-])cc2)C(=O)c2cc(F)ccc2C1=O [A-a-12]
- IC50 [1, 5]: 177 nM
- Tox/L6 [2]: 307.0 µM

Compound: CC1=C(Cc2ccc(I)cc2)C(=O)c2cc(F)ccc2C1=O [A-a-13]
- IC50 [1, 5]: 198 nM
- Tox/L6 [2]: 40.9 µM

Compound: CC1=C(Cc2ccc(Cl)cc2Cl)C(=O)c2cc(F)ccc2C1=O [A-a-14]
- IC50 [1, 5]: 137 nM

Compound: CC1=C(Cc2ccc(Cl)cc2C(F)(F)F)C(=O)c2cc(F)ccc2C1=O [A-a-15]
- IC50 [1, 5]: 103 nM

Compound: COc1ccc(CC2=C(C)C(=O)c3ccc(F)cc3C2=O)cc1 [A-a-16]
- IC50 [1, 5]: 1120 nM
- Tox/L6 [2]: 195.9 µM

Compound: COc1cccc(CC2=C(C)C(=O)c3ccc(F)cc3C2=O)c1 [A-a-17]
- IC50 [1, 5]: 361 nM
- Tox/L6 [2]: 165.6 µM

Compound: COc1ccccc1CC1=C(C)C(=O)c2ccc(F)cc2C1=O [A-a-18]
- IC50 [1, 5]: 572 nM
- Tox/L6 [2]: 189.3 µM

Compound: COc1ccc(CC2=C(C)C(=O)c3ccc(F)cc3C2=O)cc1OC [A-a-19]
- IC50 [1, 5]: 171 nM
- Tox/L6 [2]: 5.6 µM

Compound: COc1ccc(CC2=C(C)C(=O)c3ccc(F)cc3C2=O)c(OC)c1 [A-a-20]
- IC50 [1, 5]: 316 nM
- Tox/L6 [2]: 106.6 µM

Compound: CC1=C(Cc2ccc3c(c2)OCO3)C(=O)c2cc(F)ccc2C1=O [A-a-21]
- IC50 [1, 5]: 70 nM
- IC50 [1, 6]: < 100 nM
- Tox/L6 [2]: 165.6 µM

Compound: CC1=C(Cc2ccc3c(c2)OCCO3)C(=O)c2cc(F)ccc2C1=O [A-a-22]
- IC50 [1, 5]: 311 nM

Compound: CC1=C(Cc2ccc3c(c2)OC(C)(C)O3)C(=O)c2cc(F)ccc2C1=O [A-a-23]
- IC50 [1, 5]: 338 nM

Compound: CC1=C(Cc2ccc3c(c2)OC(F)(F)O3)C(=O)c2cc(F)ccc2C1=O [A-a-24]
- IC50 [1, 5]: 206 nM

Compound: COc1ccc(CC2=C(C)C(=O)c3ccc(F)cc3C2=O)c(OC)c1OC [A-a-25]
- IC50 [1, 5]: 340 nM
- Tox/L6 [2]: 215.5 µM

Compound: COc1ccc(OC)c(CC2=C(C)C(=O)c3ccc(F)cc3C2=O)c1 [A-a-26]
- IC50 [1, 5]: 291 nM
- Tox/L6 [2]: 91.7 µM

Compound: COc1cc(CC2=C(C)C(=O)c3ccc(F)cc3C2=O)cc(OC)c1OC [A-a-27]
- IC50 [1, 5]: 265 nM
- Tox/L6 [2]: 72.4 µM

Compound: CC1=C(Cc2cccs2)C(=O)c2cc(F)ccc2C1=O [A-a-28]
- IC50 [1, 5]: 474 nM
- Tox/L6 [2]: 5.8 µM

Compound: CC1=C(CC2CCCCC2)C(=O)c2cc(F)ccc2C1=O [A-a-29]
- IC50 [1, 5]: 718 nM
- Tox/L6 [2]: 177.8 µM

Compound: CC1=C(Cc2ccc(F)cc2)C(=O)c2ccccc2C1=O [A-b-4]
- IC50 [1, 7]: < 100 nM
- IC50 ([3]; grey line ref 13): 29 nM

Compound: CC1=C(Cc2ccccc2F)C(=O)c2ccccc2C1=O [A-b-6]
- IC50 [1, 5]: 453 nM

Compound: CC1=C(Cc2ccc(C(F)(F)F)c(F)c2)C(=O)c2ccccc2C1=O [A-b-7]
- IC50 [1, 5]: 2960 nM
- Tox/L6 [2]: 49.2 µM

Compound: CC1=C(Cc2ccc(C(F)(F)F)c(Br)c2)C(=O)c2ccccc2C1=O [A-b-8]
- IC50 [1, 5]: 81 nM
- IC50 [1, 6]: < 100 nM

Compound: CC1=C(Cc2ccccc2C#N)C(=O)c2ccccc2C1=O [A-b-11]
- IC50 [1, 5]: 312 nM
- Tox/L6 [2]: 186.2 µM

Compound: CC1=C(Cc2ccc([N+](=O)[O-])cc2)C(=O)c2ccccc2C1=O [A-b-12]
- IC50 [1, 7]: > 200 nM
- IC50 ([3]; grey line ref 8): 201 nM

Compound: CC1=C(Cc2ccc(Cl)cc2Cl)C(=O)c2ccccc2C1=O [A-b-14]
- IC50 [1, 5]: 67 nM
- IC50 [1, 6]: < 100 nM

Compound: CC1=C(Cc2ccc(Cl)cc2C(F)(F)F)C(=O)c2ccccc2C1=O [A-b-15]
- IC50 [1, 5]: 80 nM
- IC50 [1, 6]: < 100 nM

Compound: COc1ccc(CC2=C(C)C(=O)c3ccccc3C2=O)cc1OC [A-b-19]
- Tox/L6 ([4]; grey line ref 13): 5.6 µM
- IC50 ([3]; grey line ref 13): 142 nM

Compound: CC1=C(Cc2ccc3c(c2)OCO3)C(=O)c2ccccc2C1=O [A-b-21]
- IC50 [1, 5]: 200 nM
- Tox/L6 [2]: 97.9 µM

Compound: CC1=C(Cc2ccc3c(c2)OCCO3)C(=O)c2ccccc2C1=O [A-b-22]
- IC50 [1, 5]: 280 nM

Compound: CC1=C(Cc2ccc3c(c2)OC(C)(C)O3)C(=O)c2ccccc2C1=O [A-b-23]
- IC50 [1, 5]: 152 nM

Compound: CC1=C(Cc2ccc3c(c2)OC(F)(F)O3)C(=O)c2ccccc2C1=O [A-b-24]
- IC50 [1, 5]: 77 nM
- IC50 [1, 6]: < 100 nM

Compound: CC1=C(Cc2cccs2)C(=O)c2ccccc2C1=O [A-b-28]
- IC50 [1, 5]: 115 nM
- Tox/L6 [2]: 5.2 µM

Compound: CC1=C(CC2CCCCC2)C(=O)c2ccccc2C1=O [A-b-29]
- IC50 [1, 5]: 913 nM
- Tox/L6 [2]: 229.9 µM

Compound: CC1=C(Cc2ccco2)C(=O)c2ccccc2C1=O [A-b-43]
- Tox/L6 ([4]; grey line ref 8): 4.2 µM
- IC50 ([3]; grey line ref 8): 501 nM

Compound: CC1=C(Cc2cccc(C#N)c2)C(=O)c2cc(F)ccc2C1=O [B-a-30]
- IC50 [1, 5]: 326 nM
- Tox/L6 [2]: 33.3 µM

Compound: CC1=C(Cc2ccccc2)C(=O)c2cc(F)ccc2C1=O [B-a-31]
- IC50 [1, 5]: 300 nM
- Tox/L6 [2]: 174.5 µM

Compound: CC1=C(Cc2ccc([N+](=O)[O-])c(F)c2)C(=O)c2cc(F)ccc2C1=O [B-a-32]
- IC50 [1, 5]: 705 nM
- Tox/L6 [2]: 107.4 µM

Compound: CC1=C(Cc2ccc(F)c(I)c2)C(=O)c2cc(F)ccc2C1=O [B-a-33]
- IC50 [1, 5]: 376 nM

Compound: CC1=C(Cc2ccc(Br)cc2C(F)(F)F)C(=O)c2cc(F)ccc2C1=O [B-a-34]
- IC50 [1, 5]: 169 nM

Compound: COc1cc(CC2=C(C)C(=O)c3ccc(F)cc3C2=O)cc(OC)c1 [B-a-35]
- IC50 [1, 5]: 711 nM
- Tox/L6 [2]: 293.0 µM

Compound: CC1=C(Cc2cccc(F)c2)C(=O)c2ccccc2C1=O [B-b-5]
- IC50 [1, 5]: 89 nM
- IC50 [1, 6]: < 100 nM
- Tox/L6 [2]: 71.0 µM

Compound: CC1=C(Cc2cccc(C#N)c2)C(=O)c2ccccc2C1=O [B-b-30]
- IC50 [1, 5]: 190 nM
- Tox/L6 [2]: 72.6 µM

Compound: CC1=C(Cc2ccccc2)C(=O)c2ccccc2C1=O [B-b-31]
- IC50 ([3]; grey line ref 9): 1700 nM

Compound: CC1=C(Cc2ccc(F)c(I)c2)C(=O)c2ccccc2C1=O [B-b-33]
- IC50 [1, 5]: 136 nM

Compound: CC1=C(Cc2ccc(Br)cc2C(F)(F)F)C(=O)c2ccccc2C1=O [B-b-34]
- IC50 [1, 5]: 78 nM

Compound: CC1=C(Cc2ccc3scnc3c2)C(=O)c2cc(F)ccc2C1=O [C-a-40]
- IC50 [1, 5]: 2060 nM

Compound: CC1=C(Cc2ccc3ncsc3c2)C(=O)c2cc(F)ccc2C1=O [C-a-41]
- IC50 [1, 5]: 2530 nM

Compound: CC1=C(Cc2ccco2)C(=O)c2cc(F)ccc2C1=O [C-a-43]
- IC50 [1, 5]: 947 nM
- Tox/L6 [2]: 3.8 µM

Compound: CC1=C(Cc2ccc3scnc3c2)C(=O)c2ccccc2C1=O [C-b-40]
- IC50 [1, 5]: 235 nM
- Tox/L6 [2]: 50.29 µM

Compound: CC1=C(Cc2ccc3ncsc3c2)C(=O)c2ccccc2C1=O [C-b-41]
- IC50 [1, 5]: 370 nM
- Tox/L6 [2]: 49.81 µM

Compound: CC1=C(Cc2ccc(S(F)(F)(F)(F)F)cc2)C(=O)c2ccccc2C1=O [C-b-46, 4′-SF5-substituted 3-benzylmenadione]
- IC50 [1, 5]: 48 nM
- Tox/L6 [2]: 35.1 µM
